The source of these data is publication PMC11016601, “Exploring the bioaccessibility and intestinal absorption of major classes of pure phenolic compounds using in vitro simulated gastrointestinal digestion” (Heliyon, 2024).

Values joined by “and” are separate entries in the source; they are usually repeats but may differ in a detail not shown here. Equal entries are not always repeated. Where two headings read alike, the source gives them in different places. Marks after values point to notes of the source that are not given here.

The nature of data set [1]: In vitro simulated gastrointestinal digestion (SGD, INFOGEST 2.0): concentration and bioaccessibility by UHPLC-DAD-MSn. To be noted: for Bioaccessibility (%), initial solution (IS): reference. As for the experimental part:
Preliminary solubility tests in different solvents, namely water, sodium phosphate buffer (26.8 mM, pH 6.1), ethanol, and also a mixture of ethanol with both water and sodium phosphate buffer, were carried out for each PC (data not shown), to prevent erroneous data arising from compounds precipitation. Ethanol percentages used in these preliminary solubility tests were 10, 15, and 20% (v/v).
Each PC solubilized in ethanol:water (15% v/v) was then submitted to an in vitro SGD (INFOGEST 2.0), according to a standardized protocol (Fig. 2). In order to determine whether the interaction between the compounds and enzymes led to an underestimation of their content, each PC solution was submitted to the same digestion procedure, replacing the enzyme solutions with water, which were designed as controls, henceforth this will be the term used. Each sample and control were submitted to three independent in vitro digestion simulations, and after each digestion phase, a sample/control was collected and further analyzed and quantified by UHPLC-DAD-MSn.
(§1) Mouth digestion of each PC solution (1 mL) was diluted in 0.8 mL of simulated salivary fluid (SSF) and α-amylase (75 U mL-1). Then, the mixture was incubated for 2 min at 37 °C under agitation (200 rpm). In order to start gastric digestion, pH was adjusted to 3.0 using 1 M aqueous HCl and then, a pepsin solution (2000 U mL-1) and simulated gastric fluid (SGF) were added. Subsequently, the mixture was incubated for 2h, at 37 °C and 130 rpm orbital agitation for the stomach digestion. Finally, the small intestine digestion simulation was performed after pH adjustment to 7.0 using 1 M aqueous […] and the addition of pancreatin (100 U mL-1), bile salts solution (10 mM) and simulated intestinal fluid (SIF), during 2 h, at 37 °C with 45 rpm orbital agitation. Natural small intestine absorption was also simulated, by placing the remaining sample in a dialysis membrane, and immersed in distilled water overnight at room temperature.
At each sampling point, an aliquot (0.5 mL) from each of the three replicates was collected. The enzymatic activity was stopped immediately by adding pure methanol to each aliquot (1:1, v/v) to promote enzyme precipitation and subsequently centrifuged at 10 000 g and 4 °C for 5 min. The supernatants were filtered with a 0.2 μm nylon filter. To determine the concentration of each sample or control, it was considered the following dilution factor – 1:2, 1:4 and 1:8 for oral, gastric and intestinal digestion phase, respectively.
The bioaccessibility percentage (B%) of each PC was calculated using equation (1):(1) B(%)=[DS]/[IS]×100 where IS is the initial concentration of PCs in ethanol:water (15% v/v) solutions, DS is the concentration of each collected sample or control (without enzymes).
(§2) The values of B% and IA% were the average of the three replicates performed, with the calculated standard deviation.
PCs were analyzed in a UHPLC system equipped with a variable loop Accela autosampler (set at 16 °C), an Accela 600 LC pump, and an Accela 80 Hz photo diode array detector (DAD) (Thermo Fisher Scientific, San Jose, CA, USA). Each sample was prepared in methanol:water (1:1, v/v) and filtered through a 0.2 μm nylon syringe filter. […] The mobile phase was composed of acetonitrile (A) and water:acetonitrile (99:1, v/v) (B), both with 0.1 % of formic acid. The gradient elution was performed as follows: 0–1min: 99% B; 1–17 min: 99-73% B, 17–20 min: 73-0% B, 20–25 min: 0–99% B, followed by re-equilibration of the column at 99% B for 4 min.

A short description of data set [2]: Simulation of intestinal absorption using a dialysis membrane (3 kDa) after in vitro SGD.
Text: HPLC-grade methanol, water, and acetonitrile were supplied by Fisher Scientific Chemicals. The enzymes α-amylase (A1031), pepsin from porcine stomach mucosa (P7012), pancreatin from porcine pancreas (P7545), and bile salts (B863) were purchased from Sigma-Aldrich (Taufkirchen, Germany). The rabbit gastric extract (RGE15) with gastric lipase activity was purchased from Lipolytech (Marseille, France). The ethanol was purchased from Merck (Algés, Portugal). A dialysis membrane with a molecular pore size of 3 kDa was purchased from Spectra/Pro (Spectrum Lab, Breda, Netherlands).
as §1
Furthermore, to determine the intestinal absorption, the aliquots collected inside the dialysis membrane were analyzed. The concentration of these samples (from inside of the membrane) corresponds to the amount of each PC that has not passed through to the outside of the membrane.
as §2

Where [3] appears, read: controls (without enzymes), gastric phase.
[4] abbreviates: controls (without enzymes), initial solution.
The mark [5] stands for this setting: controls (without enzymes), intestinal phase.
The mark [6] stands for this setting: controls (without enzymes), oral phase.
[7] abbreviates: samples with enzymes, after gastric digestion pH 3.0.
Setting [8] is: samples with enzymes, after intestinal digestion pH 7.0.
Where [9] appears, read: samples with enzymes, after oral digestion.
Setting [10] is: samples with enzymes, gastric phase.
The mark [11] stands for this setting: samples with enzymes, intestinal phase.
The mark [12] stands for this setting: samples with enzymes, oral phase.
[13] abbreviates: samples, initial ethanol:water (15% v/v) solution.

Consider `O=c1c(-c2ccc(O)cc2)coc2cc(O)ccc12` [DAID, daidzein], for which the “Bioaccessibility (%), gastric phase (G)” value in data set [1] (setting [3]) was 70.95% and 70.95 ± 3.71 ^a %; in data set [1] (setting [10]), 81.78% and 81.78 ± 10.87 ^a %. For the same compound, the “Concentration, gastric phase (G)” value in data set [1] (setting [3]) was 12.89 ± 0.67 µg/mL; in data set [1] (setting [7]), 14.86 ± 1.98 µg/mL. The “Concentration, initial solution (IS)” value in data set [1] (setting [4]) and in data set [1] (setting [13]) was 18.17 µg/mL throughout. Moreover, the “Bioaccessibility (%), initial solution (IS)” value (from here on “Bioaccessibility (%) … (IS)”) in data set [1] (setting [4]) is listed as 100^ a %; in data set [1] (samples, initial solution), 100^ a %. Besides, the “Bioaccessibility (%), intestinal phase (I)” value (shortened to “Bioaccessibility (%) … (I)”) in data set [1] (setting [5]) was 138.68% and 138.68 ± 9.01^ a %; in data set [1] (setting [11]) it was 158.08% and 158.08 ± 11.20^ a %. Besides, the figures for the “Concentration, intestinal phase (I)” value in data set [1] (setting [5]) and in data set [1] (setting [8]) were 25.20 ± 1.64 µg/mL and 28.72 ± 2.03 µg/mL, respectively. The “Bioaccessibility (%), oral phase (O)” value was 78.35% and 78.35 ± 24.88^ a % in data set [1] (setting [6]); 119.06% and 119.06 ± 30.41^ a % in data set [1] (setting [12]). Further, the “Concentration, oral phase (O)” value was 14.24 ± 4.52 µg/mL in data set [1] (setting [6]) and 21.63 ± 5.52 µg/mL in data set [1] (setting [9]). Further, the “Concentration, dialysis phase (D)” value in data set [2] is “below the detection limit”.

Regarding `O=c1oc2c(O)c(O)cc3c(=O)oc4c(O)c(O)cc1c4c23` [EA, ellagic acid], the “Concentration, intestinal phase (I)” value in data set [1] (setting [8]) is 5.20 ± 0.10 µg/mL. Besides, in data set [1] (setting [9]), the “Concentration, oral phase (O)” value was 4.78 ± 1.75 µg/mL. For the same compound, in data set [2], the “Concentration, dialysis phase (D)” value is “below the detection limit” and the “Intestinal absorption (IA%)” value is recorded as “very high”.

With `O=C(O[C@@H]1Cc2c(O)cc(O)cc2O[C@@H]1c1cc(O)c(O)c(O)c1)c1cc(O)c(O)c(O)c1` [EGCG, epigallocatechin-3-O-gallate], the “Bioaccessibility (%), oral phase (O)” value in data set [1] (2 min) was 38.16 ± 12.23^ b %; in data set [1] (setting [6]), 34.13% and 34.13 ± 1.91 ^c %; in data set [1] (setting [12]), 38.16%. In addition, the “Bioaccessibility (%), gastric phase (G)” value in data set [1] (setting [3]) was 61.53% and 61.53 ± 5.39 ^b %; in data set [1] (setting [10]), 71.21% and 71.21 ± 3.16 ^a %. Moreover, the “Concentration, gastric phase (G)” value was 1272.99 ± 111.59 µg/mL in data set [1] (setting [3]) and 1473.22 ± 65.28 µg/mL in data set [1] (setting [7]). Also, the “Concentration, initial solution (IS)” value in data set [1] (setting [4]) and in data set [1] (setting [13]) was 2068.93 µg/mL throughout. The “Bioaccessibility (%) … (IS)” value in data set [1] (setting [4]) was 100^ a %; in data set [1] (samples, initial solution), 100^ a %. Besides, the “Bioaccessibility (%) … (I)” value in data set [1] (setting [5]) was 5.03% and 5.03 ± 0.81 ^d %; in data set [1] (setting [11]) it was 15.09% and 15.09 ± 2.26 ^b %. Also, the “Concentration, intestinal phase (I)” value is 104.15 ± 16.86 µg/mL in data set [1] (setting [5]) and 312.22 ± 46.76 µg/mL in data set [1] (setting [8]). For the same compound, the results for the “Concentration, oral phase (O)” value in data set [1] (setting [6]) and in data set [1] (setting [9]) were 706.03 ± 39.46 µg/mL and 789.50 ± 253.03 µg/mL, respectively. In data set [2], the “Concentration, dialysis phase (D)” value is on record as “below the detection limit”. The “Intestinal absorption (IA%)” value in data set [2] is listed as “very high”.

With `O=C1C[C@@H](c2ccc(O)cc2)Oc2cc(O)cc(O)c21` [NAR, (+)-naringenin], the “Bioaccessibility (%), oral phase (O)” value in data set [1] (2 min) was 97.26 ± 5.50%; in data set [1] (setting [6]) it was 102.62% and 102.62 ± 1.12%; in data set [1] (setting [12]), 97.26%. Also, the “Bioaccessibility (%), gastric phase (G)” value in data set [1] (setting [3]) is 84.37% and 84.37 ± 4.60%; in data set [1] (setting [10]), 79.09% and 79.09 ± 6.97%. For the same compound, the “Concentration, gastric phase (G)” value in data set [1] (setting [3]) was 301.86 ± 16.45 µg/mL; in data set [1] (setting [7]), 282.96 ± 24.94 µg/mL. Further, the “Concentration, initial solution (IS)” value in data set [1] (setting [4]) and in data set [1] (setting [13]) was 357.76 µg/mL in each case. Further, the “Bioaccessibility (%) … (IS)” value in data set [1] (setting [4]) was 100%; in data set [1] (samples, initial solution), 100%. For the same compound, the “Bioaccessibility (%) … (I)” value in data set [1] (setting [5]) is 68.99% and 68.99 ± 33.64%; in data set [1] (setting [11]), 65.15% and 65.15 ± 28.62%. Besides, the “Concentration, intestinal phase (I)” value in data set [1] (setting [5]) is 246.82 ± 120.35 µg/mL; in data set [1] (setting [8]) it was 233.10 ± 102.39 µg/mL. Further, the “Concentration, oral phase (O)” value was 367.13 ± 4.00 µg/mL in data set [1] (setting [6]) and 347.95 ± 19.67 µg/mL in data set [1] (setting [9]). Besides, the “Concentration, dialysis phase (D)” value in data set [2] was 3.29 ± 0.96 µg/mL; in data set [2] (pig), 17.50 ± 3.80 µg/mL.

As for `Oc1cc(O)cc(O)c1` [PG, phloroglucinol], the “Bioaccessibility (%), oral phase (O)” value in data set [1] (2 min) was 92.78 ± 5.91^ b %; in data set [1] (setting [6]), 94.08% and 94.08 ± 1.84 ^a %; in data set [1] (setting [12]), 92.78%. Also, the “Bioaccessibility (%), gastric phase (G)” value in data set [1] (setting [3]) is 91.32% and 91.32 ± 3.79 ^a %; in data set [1] (setting [10]) it was 94.09% and 94.09 ± 3.85^ b %. Further, the “Concentration, gastric phase (G)” value in data set [1] (setting [3]) was 4765.51 ± 197.78 µg/mL; in data set [1] (setting [7]), 4910.12 ± 200.81 µg/mL. Further, the “Concentration, initial solution (IS)” value in data set [1] (setting [4]) and in data set [1] (setting [13]) was 5218 µg/mL in each case. Moreover, the “Bioaccessibility (%) … (IS)” value in data set [1] (setting [4]) is 100 ^a %; in data set [1] (samples, initial solution), 100^ b %. Further, the “Bioaccessibility (%) … (I)” value in data set [1] (setting [5]) was 94.91% and 94.91 ± 5.32 ^a %; in data set [1] (setting [11]) it was 159.82% and 159.82 ± 19.05^ a %. For the same compound, the “Concentration, intestinal phase (I)” value was 4952.79 ± 277.44 µg/mL in data set [1] (setting [5]) and 8339.90 ± 994.21 µg/mL in data set [1] (setting [8]). Also, the entries for the “Concentration, oral phase (O)” value in data set [1] (setting [6]) and in data set [1] (setting [9]) were 4909.58 ± 96.26 µg/mL and 4841.66 ± 308.60 µg/mL, respectively. In addition, the “Concentration, dialysis phase (D)” value in data set [2] is 225.29 ± 125.33 µg/mL; in data set [2] (pig) it was 555.31 ± 145.46 µg/mL.
